Assay results published in patent publication US12643867B2, “Compositions and uses thereof” (University of Virginia Patent Foundation, priority 2017, dated 2026).

Assays:
[1] = target: T1, ARAF (Homo sapiens, UniProt P10398); test: ATP acyl phosphate chemical proteomics in lung cancer cell proteomes (targeted PRM); format: binding; details: H82 proteomes
T1 construct: measure selectivity of compounds against native kinases detected in lung cancer proteomes; endogenous in cells; host or cells: H82 (and A549) cell proteomes
Description: (§1) LC-MS analysis of SILAC samples using ATP acyl phosphates. Quantitative chemoproteomics was performed as previously described (Franks et al., 2017; McCloud et al., 2018).
(§2) To further confirm that ritanserin is a CRAF inhibitor, a targeted parallel reaction monitoring method (PRM) was developed to evaluate compound activity against CRAF and other members of the RAF family (ARAF and BRAF). Targeted PRM was needed because of the low abundance of CRAF compared with ARAF and BRAF). […] Ritanserin activity was also measured against RAF kinases in A549 proteomes using the targeted LC-MS method. […] The data further support previous findings that this RAF member is enriched in SCLC cells (REF).

[2] = target: T2, BRAF (Homo sapiens, UniProt P15056); test: ATP acyl phosphate chemical proteomics in lung cancer cell proteomes; format: binding
T2 construct: measure selectivity of compounds against native kinases detected in lung cancer proteomes; endogenous in cells; host or cells: A549 and H82 lung cancer cell proteomes
Description: as §1
Computational Methods. Data for A549 and H82 cell lines were searched with IP2 and manually validated using the methods previously described (Franks et al., 2017). Data for Desthiobiotin-tagged ATP acyl-phosphate probes and ATP competitive peptides were compared and clustered. Ritanserin and ketanserin inhibition profiles were compared using SILAC ratios and normalized to DMSO.
Based on previous chemical proteomics (Franks, 2017), it was hypothesized that ritanserin is functioning as a kinase inhibitor to mediate cytotoxicity in the lung cancer cell models. […] For these studies, NSCLC and SCLC cells were cultured in isotopically light and heavy amino acids to enable quantitative chemical proteomics (Chang. 2015) by stable isotope labeling with amino acids in cell culture (SILAC, FIG. 17A). […] After probe labeling, light and heavy proteomes were combined, digested with trypsin protease, and desthiobiotin-modified peptides enriched by avidin affinity chromatography and analyzed by LC-MS/MS to identify and quantify isotopically tagged active-site peptides from native kinases as previously described(Franks, 2017) (FIG. 17A).
as §2

[3] = test system: Bone Marrow Derived Macrophages (BMDMs), noncancerous primary cells; test: WST-1 Cell Proliferation Assay; format: cell-based; details: ritanserin highest concentration tested 50 μM; staurosporine 1 μM

T2 sequence (P15056 whole entry): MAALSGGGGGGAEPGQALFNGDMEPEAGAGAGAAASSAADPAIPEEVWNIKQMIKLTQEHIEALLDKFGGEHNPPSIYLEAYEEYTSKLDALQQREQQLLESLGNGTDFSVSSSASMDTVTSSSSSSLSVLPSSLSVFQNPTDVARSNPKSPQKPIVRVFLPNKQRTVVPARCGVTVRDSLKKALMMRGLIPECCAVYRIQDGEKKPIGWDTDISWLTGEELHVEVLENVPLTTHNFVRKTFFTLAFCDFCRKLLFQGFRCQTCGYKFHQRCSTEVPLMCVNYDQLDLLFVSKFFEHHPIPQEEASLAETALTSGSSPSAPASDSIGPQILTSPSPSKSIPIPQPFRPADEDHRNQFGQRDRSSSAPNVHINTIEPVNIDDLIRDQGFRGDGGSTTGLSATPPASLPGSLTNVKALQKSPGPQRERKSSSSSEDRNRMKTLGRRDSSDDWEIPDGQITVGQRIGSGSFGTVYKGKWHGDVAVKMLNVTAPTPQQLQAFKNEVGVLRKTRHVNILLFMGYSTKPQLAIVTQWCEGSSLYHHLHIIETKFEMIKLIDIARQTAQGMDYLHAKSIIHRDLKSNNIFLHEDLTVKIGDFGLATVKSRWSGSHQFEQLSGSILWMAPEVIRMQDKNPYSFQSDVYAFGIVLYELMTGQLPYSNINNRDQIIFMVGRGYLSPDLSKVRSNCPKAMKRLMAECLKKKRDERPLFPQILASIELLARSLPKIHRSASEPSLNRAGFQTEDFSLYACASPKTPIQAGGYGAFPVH
T1 sequence (P10398 whole entry): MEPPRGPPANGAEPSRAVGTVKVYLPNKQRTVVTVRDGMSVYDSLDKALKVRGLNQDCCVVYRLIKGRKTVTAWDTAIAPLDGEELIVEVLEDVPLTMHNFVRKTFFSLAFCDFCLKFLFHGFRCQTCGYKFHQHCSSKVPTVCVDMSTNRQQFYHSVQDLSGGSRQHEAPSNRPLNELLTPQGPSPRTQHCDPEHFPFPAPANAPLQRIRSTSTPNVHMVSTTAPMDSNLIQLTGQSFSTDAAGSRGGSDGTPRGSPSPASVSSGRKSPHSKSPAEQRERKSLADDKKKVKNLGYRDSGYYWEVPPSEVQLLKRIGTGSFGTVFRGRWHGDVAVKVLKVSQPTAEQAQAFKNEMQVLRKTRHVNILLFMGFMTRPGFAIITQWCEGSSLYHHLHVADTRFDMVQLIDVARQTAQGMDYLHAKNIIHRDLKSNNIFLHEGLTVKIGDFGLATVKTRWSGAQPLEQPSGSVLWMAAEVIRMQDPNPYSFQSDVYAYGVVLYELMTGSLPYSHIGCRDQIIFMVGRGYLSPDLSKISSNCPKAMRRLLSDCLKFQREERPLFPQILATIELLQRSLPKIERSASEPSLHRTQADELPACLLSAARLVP

Cc1nc2sccn2c(=O)c1CCN1CCC(=C(c2ccc(F)cc2)c2ccc(F)cc2)CC1 [Ritanserin]
activity by targeted PRM [1]: negligible activity
inhibition by three-fold change cutoff ([2]; 100 μM, A549 and H82 proteomes): BRAF inhibition
activity by targeted PRM ([2]; H82 proteomes): negligible activity
cell killing of noncancerous primary cells (WST-1), words [3]: negligible cell killing
